Source: PMC8151276, “An Integrated Approach toward NanoBRET Tracers for Analysis of GPCR Ligand Engagement” (Molecules, 2021)

Target: T1, BRS3 (Homo sapiens, UniProt P32247)
T1 construct: purchased Promega (in-house HiBiT-GPCR construct library, NanoBRET)
T1 sequence (P32247 1-399): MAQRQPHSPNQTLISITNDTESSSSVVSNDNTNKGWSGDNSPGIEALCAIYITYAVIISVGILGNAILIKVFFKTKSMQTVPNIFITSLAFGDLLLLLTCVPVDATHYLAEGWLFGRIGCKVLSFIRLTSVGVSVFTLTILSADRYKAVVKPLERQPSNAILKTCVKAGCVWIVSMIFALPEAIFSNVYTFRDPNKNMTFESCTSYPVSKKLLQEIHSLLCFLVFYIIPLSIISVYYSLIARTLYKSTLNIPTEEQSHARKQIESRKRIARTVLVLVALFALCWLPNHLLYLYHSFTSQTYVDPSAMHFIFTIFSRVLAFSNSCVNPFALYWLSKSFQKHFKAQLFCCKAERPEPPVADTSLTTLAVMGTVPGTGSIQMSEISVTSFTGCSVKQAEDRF
Assay: NanoBRET screen HiBiT-BRS3 in HEK293
Type: binding
Procedure: Each tracer candidate was screened across the entire library of HiBiT-GPCR constructs using NanoBRET as the detection modality. As depicted in Figure 4A, the specificity of interactions was evaluated through decrease in BRET due to competitive displacement of a bound tracer by excess parental compound. Each tracer was analyzed for binding to each HiBiT-GPCR fusion in the absence and in the presence of competing parental compound. Briefly, HEK293 cells were transfected with HiBiT-GPCR constructs diluted into promoterless DNA to reduce expression and maximize translocation to the cell surface. Each tracer candidate was then screened at concentrations of 1 μM and 0.1 μM across cells expressing these fusions. Cells were treated for 1.5 h with tracer either alone or in the presence of 20 μM competing parental compound (i.e., control). BRET was measured upon addition of purified LgBiT and subsequent complementation with HiBiT genetically fused to a GPCR. The specificity of interactions was assessed through a decrease in BRET signal due to competitive displacement of the bound tracer. To further gauge the robustness of these interactions, the fold response over the control (i.e., BRETtracer/BRETcontrol) was calculated. We chose a 1.5-fold response, which translates to ≥7-fold signal over noise as the minimal threshold required to score an interaction as positive. […]. Below we highlight the screening results obtained for our exemplary fluorescent tracers based on Clozapine, Amitriptyline and AZD1283.
HiBiT-GPCR DNA constructs were diluted in 10 mM Tris pH 8 to a final concentration of 0.01 μg/μL, arrayed in 96-well plates and stored at −20 °C. For transfection, HEK293 cells were suspended in Opti-MEM (without phenol red) supplemented with 2% fetal bovine serum (Seradigm) and 100 units/mL penicillin–streptomycin (Gibco) at a final concentration of 220,000 cells/mL and dispensed into white 96-well plates at 90 μL/well. Subsequent transfections and screens were carried using an Agilent Bravo Automated Liquid Handling Platform. First, the 96-well HiBiT DNA arrays were diluted 25-fold in Opti-MEM (without serum or phenol red) to a final concentration of 0.0004 μg/μL and 20 μL of the diluted DNAs were transferred into new 96-well plates. Next, promoterless carrier DNA (1 μg/μL) was diluted 25-fold (0.04 μg/μL) and then dispensed into the diluted arrays at 20 μL/well. Following brief mixing, Viafect transfection reagent (Promega) diluted 16-fold into Opti-MEM was dispensed into the plates at 40 μL/well. After mixing by pipetting, plates were incubated for 10 min on the pipetting station deck. The DNA-transfection reagent complexes were then added to plates containing cells. To facilitate the screen, 10 μL of DNA-transfection reagent complexes were added in duplicates to the top 4 and bottom 4 rows, resulting in two identical 48-well arrays per plate. Plates with transfected cells were incubated for 18–20 h at 37 °C/5% CO2. A screen of each tracer across the entire library using two different concentrations requires duplicate plates of transfected cells. Depending on the number of tracers being screened, transfections can be scaled up using the same ratios. The next day, for each tracer, four 20× screening solutions in tracer dilution buffer (Promega) were prepared: two duplicates at final concentration of 20 μM and two duplicates at a final concentration of 2 μM. A competing unmodified compound was added to one of each duplicate at a final concentration of 400 μM. The four resulting solutions were diluted 4-fold in Opti-MEM without serum or phenol red to generate 5× solutions (5 µM and 0.5 µM tracer +/− 100 μM competing compound). To screen the library, a BioTek MultiFlo FX liquid dispenser was used to dispense 22.5 µL of tracer solution to the top 4 rows and 22.5 µL tracer + competing compound solution to the 4 bottom rows. Plates were briefly mixed on an orbital shaker and incubated for 1.5 h at room temperature. […]

## CN1CCN(C2=Nc3cc(Cl)ccc3Nc3ccc(CNC(=O)CCOCCOCCOCCOCCNC(=O)CCc4ccc5n4[B-](F)(F)[N+]4=C(c6ccc[nH]6)C=CC4=C5)cc32)CC1 [Clozapine-b-2-NB590]
BRS3, 0.1μM tracer
  NanoBRET Fold Response: 1.01
BRS3, 1μM tracer
  NanoBRET Fold Response: 1.02

## CN(C)CCC=C1c2ccccc2CCc2ccc(C(=O)NCCNC(=O)CCOCCOCCOCCOCCNC(=O)CCc3ccc4n3[B-](F)(F)[N+]3=C(c5ccc[nH]5)C=CC3=C4)cc21 [Amitriptyline-b-2-NB590]
Tracer at 0.1μM
  NanoBRET Fold Response: 0.92
Tracer at 1μM, listed as amitriptyline-b-2-NB590
  NanoBRET Fold Response: 1.07

## CCOC(=O)c1cc(C#N)c(N2CCC(C(=O)NS(=O)(=O)Cc3ccccc3/C=C/C(=O)NCCNC(=O)CCc3ccc4n3[B-](F)(F)[N+]3=C(c5ccc[nH]5)C=CC3=C4)CC2)nc1C [AZD1283-1-NB590]
BRS3, 0.1μM
  NanoBRET Fold Response: 1.10
BRS3, 1μM
  NanoBRET Fold Response: 1.02

## CC(C)N(CC[C@H](c1ccccc1)c1cc(CCNC(=O)CCOCCOCCOCCOCCNC(=O)CCc2ccc3n2[B-](F)(F)[N+]2=C(c4ccc[nH]4)C=CC2=C3)ccc1O)C(C)C [Tolterodine-2-NB590]
BRS3, tracer 0.1μM
  NanoBRET Fold Response: 1.02
BRS3, tracer 1μM
  NanoBRET Fold Response: 1.04

## CC(C)N(CC[C@H](c1ccccc1)c1cc(CCNC(=O)c2ccc(CNC(=O)CCc3ccc4n3[B-](F)(F)[N+]3=C(c5ccc[nH]5)C=CC3=C4)cc2)ccc1O)C(C)C [Tolterodine-BZ-NB590]
BRS3, tracer 0.1μM
  NanoBRET Fold Response: 0.89
BRS3, tracer 1μM
  NanoBRET Fold Response: 1.09

## O=C(CCOCCOCCOCCOCCNC(=O)CCc1ccc2n1[B-](F)(F)[N+]1=C(c3ccc[nH]3)C=CC1=C2)NCCCN1CCN(C2=Nc3ccccc3Oc3ccc(Cl)cc32)CC1 [Loxapine-a-2-NB590]
BRS3, tracer 0.1μM
  NanoBRET Fold Response: 0.99
BRS3, tracer 1μM
  NanoBRET Fold Response: 1.20

## CN1CCN(C2=Nc3cc(Cl)ccc3N(CC(=O)NCCOCCOCCOCCOCCNC(=O)CCc3ccc4n3[B-](F)(F)[N+]3=C(c5ccc[nH]5)C=CC3=C4)c3ccccc32)CC1 [Clozapine-c-2-NB590]
BRS3, 0.1μM tracer
  NanoBRET Fold Response: 0.93
BRS3, 1μM tracer
  NanoBRET Fold Response: 1.07

## CN(C)CCC=C1c2ccccc2CCc2ccc(C(=O)NCCNC(=O)CCOCCOCCOCCOCCNC(=O)CCc3ccc4n3[B-](F)(F)[N+]3=C(c5ccc[nH]5)C=CC3=C4)cc21 [Amitriptyline-a-2-NB590]
Tracer at 0.1μM
  NanoBRET Fold Response: 1.02
Tracer at 1μM
  NanoBRET Fold Response: 0.99

## Cc1nc2n(c(=O)c1CCN1CCC(c3noc4cc(F)ccc34)CC1)CCCC2OC(=O)NCCOCCOCCOCCOCCNC(=O)CCc1ccc2n1[B-](F)(F)[N+]1=C(c3ccc[nH]3)C=CC1=C2 (stereo not shown) [Risperidone-2-NB590]
BRS3, tracer 0.1μM
  NanoBRET Fold Response: 0.95
BRS3, tracer 1μM
  NanoBRET Fold Response: 0.98

## COc1ccc2[nH]c(-c3ccc(CNC(=O)CCOCCOCCOCCOCCNC(=O)CCc4ccc5n4[B-](F)(F)[N+]4=C(c6ccc[nH]6)C=CC4=C5)cc3)c(CCNC(C)=O)c2n1 [AzomelatoninICO9-2-NB590]
0.1μM tracer
  NanoBRET Fold Response: 0.86
1μM tracer
  NanoBRET Fold Response: 0.91

## COc1ccccc1N1CCN(CCCCN2C(=O)c3ccc(CNC(=O)CCOCCOCCOCCOCCNC(=O)CCc4ccc5n4[B-](F)(F)[N+]4=C(c6ccc[nH]6)C=CC4=C5)cc3C2=O)CC1 [NAN-190-2-NB590]
BRS3, tracer 0.1μM
  NanoBRET Fold Response: 1.04
BRS3, tracer 1μM
  NanoBRET Fold Response: 0.97

## O=C(CCc1ccc2n1[B-](F)(F)[N+]1=C(c3ccc[nH]3)C=CC1=C2)NCCOCCOCCNC(=O)OCCOCCN1CCN(C2=Nc3ccccc3Sc3ccccc32)CC1 [Quetiapine-a-2-NB590]
BRS3, tracer 0.1μM
  NanoBRET Fold Response: 0.96
BRS3, tracer 1μM
  NanoBRET Fold Response: 0.98

## O=C(CCOCCOCCOCCOCCNC(=O)CCc1ccc2n1[B-](F)(F)[N+]1=C(c3ccc[nH]3)C=CC1=C2)NCCCN1CCN(C2=Nc3cc(Cl)ccc3Nc3ccccc32)CC1 [Clozapine-a-2-NB590]
BRS3, 0.1μM tracer
  NanoBRET Fold Response: 1.09
BRS3, 1μM tracer
  NanoBRET Fold Response: 1.15

## N#CN=C(NCCCOc1cccc(CN2CCCCC2)c1)NCCNC(=O)CCOCCOCCOCCOCCNC(=O)CCc1ccc2n1[B-](F)(F)[N+]1=C(c3ccc[nH]3)C=CC1=C2 [Aminopotentidine-2-NB590]
BRS3, tracer 0.1μM
  NanoBRET Fold Response: 1.02
BRS3, tracer 1μM
  NanoBRET Fold Response: 1.00

## O=C(CCc1ccc2n1[B-](F)(F)[N+]1=C(c3ccc[nH]3)C=CC1=C2)NCc1ccc(C(=O)NCCOCCOCCNCC(O)COc2cccc3ccccc23)cc1 (stereo not shown) [Propranolol-3-NB590]
BRS3, 0.1μM
  NanoBRET Fold Response: 1.03
BRS3, 1μM
  NanoBRET Fold Response: 1.08

## O=C(CCc1ccc2n1[B-](F)(F)[N+]1=C(c3ccc[nH]3)C=CC1=C2)NCc1ccc(C(=O)NCCOCCC(=O)N[C@@H]2CC[C@@]3(O)[C@H]4Cc5ccc(O)c6c5[C@@]3(CCN4CC3CC3)[C@H]2O6)cc1 [Naltrexone-3-NB590]
BRS3, tracer 0.1μM
  NanoBRET Fold Response: 1.05
BRS3, tracer 1μM
  NanoBRET Fold Response: 0.94

## COc1ccccc1N1CCN(CCCCN2C(=O)c3ccc(CNC(=O)CCOCCNC(=O)c4ccc(CNC(=O)CCc5ccc6n5[B-](F)(F)[N+]5=C(c7ccc[nH]7)C=CC5=C6)cc4)cc3C2=O)CC1 [NAN-190-3-NB590]
BRS3, tracer 0.1μM
  NanoBRET Fold Response: 0.95
BRS3, tracer 1μM
  NanoBRET Fold Response: 1.02

## Cc1cc2c(s1)Nc1ccccc1N=C2N1CCN(CCCNC(=O)CCOCCOCCOCCOCCNC(=O)CCc2ccc3n2[B-](F)(F)[N+]2=C(c4ccc[nH]4)C=CC2=C3)CC1 [Olanzapine-a-2-NB590]
BRS3, tracer 0.1μM
  NanoBRET Fold Response: 1.01
BRS3, tracer 1μM
  NanoBRET Fold Response: 1.05

## CCCn1c(=O)c2[nH]c(-c3ccc(OCC(=O)NCCNC(=O)CCOCCNC(=O)c4ccc(CNC(=O)CCc5ccc6n5[B-](F)(F)[N+]5=C(c7ccc[nH]7)C=CC5=C6)cc4)cc3)nc2n(CCC)c1=O [XAC-3-NB590]
BRS3, tracer 0.1μM
  NanoBRET Fold Response: 0.95
BRS3, tracer 1μM
  NanoBRET Fold Response: 1.04

## COc1ccc2c(n1)c(CCNC(C)=O)cn2CCNC(=O)CCc1ccc2n1[B-](F)(F)[N+]1=C(c3ccc[nH]3)C=CC1=C2 [Azamelatonin-1-NB590]
0.1μM tracer
  NanoBRET Fold Response: 0.95
1μM tracer
  NanoBRET Fold Response: 0.95
